Data on 3 compounds can be found in patent US6800649B1, “Method for inhibiting c-jun expression using JAK-3 inhibitors” (Parker Hughes Institute, priority 1998, dated 2004).

Test [1] has as its system IL-2 triggered JAK-3-dependent STAT activation. As to the kind of experiment: EMSA of IL-2 triggered STAT activation in 32Dc11-IL-2Rβ cells. The settings on record: 100 (g/ml, EMSA (FIG. 4C legend)). Format: cell-based. On the procedure:
(§1) FIGS. 4B1-B4. JAK-3 Inhibitors. [A]. Structures of JAK-3 inhibitors. [B] Specificity of JAK-3 inhibitors. Sf21 cells infected with baculovirus expression vectors for JAK-1 JAK-2 or JAK-3 were subjected to immunoprecipitation with anti-JAK antibodies. JAK-1 (shown in B.1), JAK-2 (shown in B.2) and JAK-3 (shown in B.3 and B.4 which illustrate results from 2 independent experiments) immune complexes were treated with 1% DMSO (vehicle control=CON), Compound 1, or Compound 2 for 1 hour prior to hot kinase assays, as described (20,22). […] EMSAs of […]-IL-2Rβ cells. Compound 1(100 (g/ml) and Compound 2 (100 (g/ml) inhibited IL-2 triggered JAK-3-dependent STAT activation but not IL-3-triggered JAK-1/JAK-2-dependent STAT activation in 32Dc11-IL-2Rβ cells.
Electrophoretic Mobility Shift Assays (EMSAs) were performed to examine the effects of both compounds on cytokine-induced STAT activation. Specifically, 32Dc11/IL2Rβ cells (gift from James Ihle, St. Jude Children's Research Hospital) were exposed at 8×10^6/ml in RPMI supplemented with FBS to the JAK-3 inhibitors at a final concentration of 10 μg/ml in 1% DMSO) for 1 hour and subsequently stimulated with IL2 or IL3 as indicated. […]
Background: Mobility shift assays separate free from complexed probe on a gel.

In a further test the target is T1, JAK-3 (Homo sapiens, UniProt P52333).
T1 construct: made in house; host or cells: Sf21 insect cells (baculovirus)
T1 sequence (P52333 1-1124): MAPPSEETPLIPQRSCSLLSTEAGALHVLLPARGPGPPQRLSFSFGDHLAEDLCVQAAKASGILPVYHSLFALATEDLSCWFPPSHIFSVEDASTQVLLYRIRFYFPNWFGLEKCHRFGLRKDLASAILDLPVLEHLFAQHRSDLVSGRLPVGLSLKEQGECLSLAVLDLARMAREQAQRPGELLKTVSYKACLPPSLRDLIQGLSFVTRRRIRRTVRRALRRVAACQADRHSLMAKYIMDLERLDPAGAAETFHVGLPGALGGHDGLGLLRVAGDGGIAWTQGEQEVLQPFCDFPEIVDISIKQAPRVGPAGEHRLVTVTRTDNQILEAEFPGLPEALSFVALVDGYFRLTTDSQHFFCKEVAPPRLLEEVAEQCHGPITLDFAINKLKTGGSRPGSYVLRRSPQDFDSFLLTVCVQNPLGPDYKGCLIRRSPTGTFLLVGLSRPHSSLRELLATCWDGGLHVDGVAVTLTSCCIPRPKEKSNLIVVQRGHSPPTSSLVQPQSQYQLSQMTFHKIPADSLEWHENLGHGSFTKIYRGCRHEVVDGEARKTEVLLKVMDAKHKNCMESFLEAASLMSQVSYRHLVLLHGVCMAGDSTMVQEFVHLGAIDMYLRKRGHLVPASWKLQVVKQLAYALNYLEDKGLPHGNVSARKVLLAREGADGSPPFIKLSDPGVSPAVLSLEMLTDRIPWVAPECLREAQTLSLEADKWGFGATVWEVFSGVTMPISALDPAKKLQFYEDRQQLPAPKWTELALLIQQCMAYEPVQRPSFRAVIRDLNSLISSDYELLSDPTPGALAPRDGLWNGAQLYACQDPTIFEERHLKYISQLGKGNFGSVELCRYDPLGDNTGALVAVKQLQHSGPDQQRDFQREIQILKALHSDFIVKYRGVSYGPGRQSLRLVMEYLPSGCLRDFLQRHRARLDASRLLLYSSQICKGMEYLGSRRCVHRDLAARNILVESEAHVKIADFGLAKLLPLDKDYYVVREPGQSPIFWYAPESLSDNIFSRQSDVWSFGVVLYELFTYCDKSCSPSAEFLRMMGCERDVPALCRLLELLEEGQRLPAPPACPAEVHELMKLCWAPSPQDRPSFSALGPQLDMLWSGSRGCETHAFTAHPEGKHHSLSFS
As to the kind of experiment: Immune complex hot kinase assay of JAK-3 immunoprecipitated from baculovirus-infected Sf21 cells. The format is biochemical. Conditions: 10 μg/ml, 1 hour exposure of immune complexes before kinase assay. On the procedure: as §1
(§2) After establishing that LYN, BTK, and SYK kinases are not required for radiation-induced c-jun activation, we set out to determine if c-jun activation is functionally linked to the JAK-STAT pathway. To this end, we examined the effects of a JAK-3 inhibitory novel quinazoline derivative on c-jun expression levels in irradiated DT-40 cells. To identify a potent JAK-3 specific inhibitor, the effects of two novel quinazoline derivatives on the enzymatic activity of JAK-1, JAK-2, and JAK-3 were examined using Sf21 cells that were infected with baculovirus expression vectors for these kinases, using standard methods (FIG. 4). […]

In test [2] the test system is c-jun expression in DT-40 chicken lymphoma B-cells. Description: Radiation-induced c-jun mRNA expression by Northern blot. Format: cell-based. On the set-up: unit of the concentration uncertain. Conditions: DT-40 cells. Here is the method: FIGS. 1A and 1B. Radiation-induced c-jun activation in wild-type DT-40 lymphoma B-cells. [A]. Dose reponse for induction of c-jun mRNA. DT-40 chicken cells were irradiated at the indicated doses (0, 10, 15, 20 Gy). Total RNA was extracted after a 2 hours or 4 hours post-irradiation time period. RNA ([…]) was loaded on a Northern gel and transferred by capillary blotting to a nylon membrane. The Northern blot was hybridized with a ^32P labeled chicken c-jun probe (top panel) or a chicken GAPDH probe (bottom panel). […] Effect of the PTK inhibitor genistein on induction of c-jun mRNA. Cells were treated with […] of genistein for 24 hours at 37° C. prior to exposure to 20 Gy ionizing radiation. c-jun expression levels were determined as in [A].
FIG. 5. Effects of a JAK-3 inhibitor on c-jun induction in irradiated DT-40 cells. Cells were treated with the quinazoline derivative 4(3′-Bromo-4′-hydroxyl-phenyl)-amino-6,7-dimethoxyquinazoline ([…]) for 24 hours at 37° C. prior to exposure to 20 Gy ionizing radiation. c-jun expression levels were determined as outlined in FIGS. 1-3. […]
A 506 basepair (bp) c-jun probe was obtained by polymerase chain reaction (PCR) amplification of chicken genomic DNA. Primer sequences were determined based upon the sequence of chicken c-jun (GenBank accession code CHKJUN). […]

Another test has as its target T2, JAK-1 (Homo sapiens, UniProt P23458).
T2 construct: made in house; host or cells: Sf21 insect cells (baculovirus)
Description: Immune complex hot kinase assay of JAK-1 immunoprecipitated from baculovirus-infected Sf21 cells. Format: biochemical. Conditions: even at 75 μg/ml, 1 hour exposure of immune complexes before kinase assay. On the procedure:
as §1, §2

In the next test the target is T3, JAK-2 (Homo sapiens, UniProt O60674).
T3 construct: made in house; host or cells: Sf21 insect cells (baculovirus)
As to the kind of experiment: Immune complex hot kinase assay of JAK-2 immunoprecipitated from baculovirus-infected Sf21 cells. The format is biochemical. Conditions: even at 75 μg/ml, 1 hour exposure of immune complexes before kinase assay. Here is the method:
as §1, §2

Structures are written as SMILES.

T2 sequence (P23458 whole entry, species assumed): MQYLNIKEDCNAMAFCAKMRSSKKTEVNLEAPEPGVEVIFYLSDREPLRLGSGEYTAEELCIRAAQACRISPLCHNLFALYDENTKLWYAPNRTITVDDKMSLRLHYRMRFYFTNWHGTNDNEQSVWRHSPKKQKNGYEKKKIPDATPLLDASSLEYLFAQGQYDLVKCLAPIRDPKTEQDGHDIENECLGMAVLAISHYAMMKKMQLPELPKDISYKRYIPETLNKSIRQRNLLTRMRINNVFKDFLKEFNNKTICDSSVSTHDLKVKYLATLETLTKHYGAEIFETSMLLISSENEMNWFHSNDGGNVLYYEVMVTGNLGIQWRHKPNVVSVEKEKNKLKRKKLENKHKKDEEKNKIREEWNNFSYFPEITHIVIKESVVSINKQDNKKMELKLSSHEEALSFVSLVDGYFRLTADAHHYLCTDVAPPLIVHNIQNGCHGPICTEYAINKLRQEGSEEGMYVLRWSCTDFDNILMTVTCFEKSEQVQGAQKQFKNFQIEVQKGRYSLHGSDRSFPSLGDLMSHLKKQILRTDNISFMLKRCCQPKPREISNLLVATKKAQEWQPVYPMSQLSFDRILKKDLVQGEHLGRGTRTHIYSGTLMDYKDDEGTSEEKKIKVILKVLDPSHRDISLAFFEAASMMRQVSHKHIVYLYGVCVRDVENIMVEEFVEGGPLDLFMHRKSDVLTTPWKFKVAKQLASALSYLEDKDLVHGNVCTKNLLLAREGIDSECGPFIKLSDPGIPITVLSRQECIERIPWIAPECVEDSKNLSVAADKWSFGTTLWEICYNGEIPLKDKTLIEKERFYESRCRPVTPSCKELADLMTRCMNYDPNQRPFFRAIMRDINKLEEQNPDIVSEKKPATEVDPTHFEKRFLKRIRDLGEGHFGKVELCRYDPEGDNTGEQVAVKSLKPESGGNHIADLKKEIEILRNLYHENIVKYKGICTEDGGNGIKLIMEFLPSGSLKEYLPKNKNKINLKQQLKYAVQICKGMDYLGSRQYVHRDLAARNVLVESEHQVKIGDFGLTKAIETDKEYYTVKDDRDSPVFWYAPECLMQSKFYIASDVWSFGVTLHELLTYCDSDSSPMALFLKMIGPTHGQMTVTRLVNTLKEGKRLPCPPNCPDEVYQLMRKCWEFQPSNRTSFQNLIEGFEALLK
T3 sequence (O60674 whole entry, species assumed): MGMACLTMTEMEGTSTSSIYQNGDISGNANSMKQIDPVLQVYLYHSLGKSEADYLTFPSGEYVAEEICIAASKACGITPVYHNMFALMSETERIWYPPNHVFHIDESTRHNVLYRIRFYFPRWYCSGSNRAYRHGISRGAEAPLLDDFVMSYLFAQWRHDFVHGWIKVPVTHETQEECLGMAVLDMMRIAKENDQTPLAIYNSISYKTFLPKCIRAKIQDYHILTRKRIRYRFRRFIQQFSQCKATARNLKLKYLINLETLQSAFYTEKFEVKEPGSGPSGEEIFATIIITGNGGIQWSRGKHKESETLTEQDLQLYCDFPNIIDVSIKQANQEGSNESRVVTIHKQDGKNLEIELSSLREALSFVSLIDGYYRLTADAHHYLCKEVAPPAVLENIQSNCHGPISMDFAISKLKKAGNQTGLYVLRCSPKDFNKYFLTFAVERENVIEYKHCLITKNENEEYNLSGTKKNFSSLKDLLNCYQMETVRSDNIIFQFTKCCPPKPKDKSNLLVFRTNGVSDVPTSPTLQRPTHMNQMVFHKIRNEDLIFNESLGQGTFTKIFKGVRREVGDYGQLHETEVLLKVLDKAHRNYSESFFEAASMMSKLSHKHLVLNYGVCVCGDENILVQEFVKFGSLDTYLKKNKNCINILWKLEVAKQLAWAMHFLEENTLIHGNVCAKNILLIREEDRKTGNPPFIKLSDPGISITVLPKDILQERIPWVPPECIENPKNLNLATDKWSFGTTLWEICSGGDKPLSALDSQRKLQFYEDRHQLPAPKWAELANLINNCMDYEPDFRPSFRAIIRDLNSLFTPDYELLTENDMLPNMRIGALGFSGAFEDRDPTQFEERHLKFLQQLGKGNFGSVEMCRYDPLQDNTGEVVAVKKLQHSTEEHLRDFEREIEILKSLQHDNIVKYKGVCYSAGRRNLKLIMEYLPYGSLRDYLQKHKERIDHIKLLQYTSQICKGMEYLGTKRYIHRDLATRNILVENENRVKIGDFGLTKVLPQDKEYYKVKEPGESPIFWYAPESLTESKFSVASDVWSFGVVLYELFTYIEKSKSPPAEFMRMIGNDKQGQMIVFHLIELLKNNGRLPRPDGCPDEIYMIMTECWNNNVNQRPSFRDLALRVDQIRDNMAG

Take `COc1cc2ncnc(Nc3ccc(O)c(Br)c3)c2cc1OC` [Compound 2, 4-(3′-Bromo-4′-hydroxylphenyl)-amino-6,7-dimethoxy-quinazoline]: the “inhibition of IL-2 triggered JAK-3-dependent STAT activation” value in test [1] is recorded as “inhibited”. Further, the “inhibition of JAK-3 enzymatic activity” value on JAK-3 is “inhibited”. Further, in test [2] (100 (unit uncertain) for 24 hours at 37° C. before 20 Gy ionizing radiation), the “induction of c-jun expression by ionizing radiation in treated cells” value is listed as “failed to induce c-jun expression”. The “inhibition of JAK-1 enzymatic activity” value at JAK-1 is “did not inhibit”. The “inhibition of JAK-2 enzymatic activity” value against JAK-2 was “did not inhibit”.
With `COc1cc2ncnc(Nc3ccc(O)cc3)c2cc1OC` [Compound 1, 4-(4′-Hydroxylphenyl)-amino-6,7-dimethoxy-quinazoline], the “inhibition of IL-2 triggered JAK-3-dependent STAT activation” value in test [1] is on record as “inhibited”. In addition, on JAK-3, the “inhibition of JAK-3 enzymatic activity” value is recorded as “inhibited”. Also, the “inhibition of JAK-1 enzymatic activity” value on JAK-1 is reported as “did not inhibit”. For the same compound, the “inhibition of JAK-2 enzymatic activity” value on JAK-2 is recorded as “did not inhibit”.
On to `O=c1c(-c2ccc(O)cc2)coc2cc(O)cc(O)c12` [genistein, reference compound], for which, in test [2] (30 (unit uncertain) for 24 hours at 37° C. before 20 Gy ionizing radiation), the “stimulation index (c-jun/GAPDH ratio, irradiated versus non-irradiated cells)” value is recorded as 1.1.
